Laboratory results taken from EP1459760A9, “Immunopotentiating inosine monophosphate 5'-nucleotidase resistant derivatives and uses thereof” (UNIVERSITY OF SOUTH FLORIDA, priority 1995, dated 1996).

How the values were obtained:
[1] = test system: 5'-nucleotidase (from Crotalus atrox venom); format: biochemical
5'-nucleotidase = test: Percent hydrolysis by 5'-nucleotidase, further set of experiments; format: biochemical, Crotalus atrox; conditions: 20 minutes, 200 µl
influenza virus = test system: influenza virus; parameters: species or system NMRI mice; conditions: mouse, in vivo
[2] = in vivo; cited from earlier work

Molecule: Nc1ncnc2c1ncn2[C@@H]1O[C@H](COP(=O)(O)O)[C@@H](O)[C@H]1O [Adenosine MP, adenosine-5'-monophosphate]
- Hydrolysis (%) [1]: 86.0%
- Percent hydrolysis by 5'-nucleotidase (5'-nucleotidase; Assay 1): 100.0%
- Percent hydrolysis by 5'-nucleotidase (5'-nucleotidase; Assay 2): 95.1%
- Percent hydrolysis by 5'-nucleotidase (5'-nucleotidase; Assay 3): 63.7%

Molecule: CC(C)CCCC(C)CCCC(C)CCCCC(C)CCCC(C)CCCC(C)C (stereo not drawn) [Squalane]
- effect on survivors and MST (influenza virus): no effect

Molecule: isoprinosine
- half-life [2]: less than four
